Tests used:
[1] = target: T1, hFXR-LBD (FXR-GAL4 chimeric receptor) (Homo sapiens, UniProt Q96RI1); test: FXR Transactivation Assay (GAL4 luciferase reporter in HEK293T cells); type: cell-based
T1 construct: host or cells: HEK293T
T1 sequence (Q96RI1 262-486 limits assumed): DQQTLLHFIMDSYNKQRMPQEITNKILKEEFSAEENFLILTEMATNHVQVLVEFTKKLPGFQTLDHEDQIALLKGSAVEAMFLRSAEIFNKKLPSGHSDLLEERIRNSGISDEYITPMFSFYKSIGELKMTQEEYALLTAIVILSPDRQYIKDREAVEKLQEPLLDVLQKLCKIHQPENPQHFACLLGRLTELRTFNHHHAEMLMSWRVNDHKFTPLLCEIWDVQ
Protocol: FXR Transactivation Assay
The present compounds were tested to assess their ability to stimulate FXR transactivation activity. The hFXR-LBD, coding sequence was inserted into the pBIND expression vector (Promega, E1581) to express FXR-GAL4 binding domain chimeric receptors. This expression vector and reporter vector (pGL4.35 which carry a stably integrated GAL4 promoter driven luciferase reporter gene) were co-transfected into HEK293T host cells. Upon agonist binding to the corresponding FXR-GAL4 chimeric receptor, the chimeric receptor binds to the GAL4 binding sites and stimulates the reporter gene.
All the working stock were shake for 5 min on plate shaker (QILINBEIER). Second, all cells were cultured as ATCC recommended. HEK293T cells were assayed in exponential growth phase. Removed culture medium from the flask and rinsed cells with PBS. Added TrypLE solution to the flask and make cells detach. Next, cells were washed once with complete growth medium. Then, cells were pelleted and washed twice with PBS to remove phenol red and resuspend them in medium to a proper concentration. Only cells with viability greater than 90% were used for assays. Seeded 6×10^6 HEK293T cells into a 100 mm dish and incubated at 37° C. under 5% CO2 atmosphere for 16 h. Third, Trans-IT reagent and Opti-MEM mix by inversion and incubate 5 min at room temperature. The cell transfection was performed by mixing DNA and the reagent mixture, as well as 6 μg GAL4-FXR plasmid or 2 μg pGL4.35 luciferase plasmid, respectively. The reagent mixture was added to a 100 mm dish and incubated for 4-7 hrs at 37° C. under 5% CO2 atmosphere. Fourth, transferred 75 nl compound dilutions into 384-well assay plates (PerkinElmer) and seeded HEK293T cells at 17,000 cells/well using phenol red-free DMEM containing 5% charcoal/dextran-treated FBS. Then, cells were incubated for 16-20 h at 37° C. under 5% CO2 atmosphere. Finally, added 25 μl Steady-Glo™ Luciferase Assay Reagent into each well of 384-well assay plate, and then shake plate for 5 min protected from light on a plate shaker. Then, the luminescence value was read on Evision 2104 plate reader (PerkinElmer).
The activity ratio was calculated as follow: […]
RLU: Resulting Luminescence
RLUpositive: The average RLU for the positive controls across the plate.
RLUvehicle: The average RLU for negative controls across the plate.
(§1) EC50 was calculated by fitting % Activity values and log of compound concentrations to nonlinear regression (dose response-variable slope) with GraphPad 5.0.
(§2) X: log of compound concentration.

FXR LBD, GST = target: T2, FXR LBD, GST (Homo sapiens, UniProt Q96RI1); test: FXR Binding Assay (TR-FRET, Fluorescein-SRC2-2 coactivator peptide); conditions: for Emax: % Activity relative to positive control, read-out: Pct Effect (Emax %); for EC50: TR-FRET FXR LBD coactivator recruitment
T2 construct: FXR LBD, GST; purchased Invitrogen PV4834
T2 sequence (Q96RI1 262-486 limits assumed): T1 sequence (Q96RI1 262-486 limits assumed)
Protocol: The interaction between the present compounds and FXR are evaluated by Time-Resolved Fluorescence Resonance Energy Transfer (TR-FRET) competition assay. FRET describes a radiation-free energy transfer between two chromophores: a donor fluorophore in its excited state can transfer energy to an acceptor fluorophore in close proximity (typically <10 nm). In contrast to standard FRET, TR-FRET unites time-resolved fluorescence (TRF) and the FRET principle, TRF use a long-lifetime lanthanide chelate as the donor species, while lanthanide chelates are unique in that their excited-state lifetime can be on the order of a millisecond or longer. Suitable neighbors for FRET are known in the art and can be obtained.
The assay was performed in following steps: first, prepared a) 1 mM compounds (100×) in DMSO; b) reaction buffer containing 1× buffer G with 10 mM DTT; c) 4×FXR LBD (20 nM) in 1× chilled buffer G. Second, performed 3-fold serial dilution of 1 mM test compounds using DMSO from 1 mM, 10 doses in a 96-well plate (249944, Nunc). Then, used complete buffer G to dilute each 100× compounds serial dilution to 2×. Third, added 10 μl 2× compound serial dilution into 384-well plate (3677, Corning). Then, added 5 μl FXR LBD into the assay plate. Prepared a solution containing 2 μM fluorescein-SRC2-2 (4×) and 20 nM Tb anti-GST antibody (4×) in buffer G at room temperature and started the reaction by adding 5 μl the above solution into each well of the assay plate. Centrifuged the assay plates at 1000 g for 1 min and then incubated at room temperature for lhr protected from light. Finally, the plate was read at wavelengths of 520 nm and 495 nm on Envision 2104 plate reader (PerkinElmer).
A ratio (Ratio520 nm/495 nm−Ratiobackground) was calculated for each well. The activity ratio was calculated as follow: […]
Ratiopositive: The average ratio for the positive control across the plate.
Ratiovehicle: The average ratio for negative controls across the plate.
as §1, §2

Q: How did the EC50 [1] turn out when Cn1cc(C(=O)O)c2ccc(N3CCN(CCc4c(-c5c(F)cccc5Cl)noc4C4CC4)CC3)cc21 [Example I10, 6-(4-(2-(3-(2-chloro-6-fluorophenyl)-5-cyclopropylisoxazol-4-yl)ethyl)piperazin-1-yl)-1-methyl-1H-indole-3-carboxylic Acid] was run?
A: 524 nM

Q: What about the Emax (FXR LBD, GST) of the same compound?
A: 173%

Q: What about the EC50 (FXR LBD, GST) of the same compound?
A: 728 nM

Q: Which EC50 [1] does the source give for CC1CN(CCc2c(-c3c(Cl)cccc3Cl)noc2C2CC2)CCN1c1ccc2c(C(=O)O)cn(C)c2c1 (stereo not drawn) [Example I12, 6-(4-(2-(5-cyclopropyl-3-(2,6-dichlorophenyl)isoxazol-4-yl)ethyl)-2-methylpiperazin-1-yl)-1-methyl-1H-indole-3-carboxylic Acid] here?
A: 129 nM

Q: And the Emax (FXR LBD, GST)?
A: 147%

Q: And the EC50 (FXR LBD, GST)?
A: 133 nM

Q: What does the source list for O=C(O)c1ccc(N2CCN(CCc3c(-c4c(Cl)cccc4Cl)noc3C3CC3)CC2)cc1 [Example I14, 4-(4-(2-(5-cyclopropyl-3-(2,6-dichlorophenyl)isoxazol-4-yl)ethyl)piperazin-1-yl)benzoic Acid]?
A: EC50 [1]: 912 nM; Emax (FXR LBD, GST): 142%; EC50 (FXR LBD, GST): 655 nM

Q: O=C(O)c1c[nH]c2cc(N3CCN(CCc4c(-c5c(Cl)cccc5Cl)noc4C4CC4)CC3)ccc12 [Example I15, 6-(4-(2-(5-cyclopropyl-3-(2,6-dichlorophenyl)isoxazol-4-yl)ethyl)piperazin-1-yl)-1H-indole-3-carboxylic Acid] was tested. Which EC50 [1] did it give?
A: 667 nM

Q: And the Emax (FXR LBD, GST)?
A: 168%

Q: What about the EC50 (FXR LBD, GST) of the same compound?
A: 419 nM

Q: What does the source list for Cn1nc(C(=O)O)c2ccc(N3CCN(CCc4c(-c5c(Cl)cccc5Cl)noc4C4CC4)CC3)cc21 [Example I17, 6-(4-(2-(5-cyclopropyl-3-(2,6-dichlorophenyl)isoxazol-4-yl)ethyl)piperazin-1-yl)-1-methyl-1H-indazole-3-carboxylic Acid]?
A: EC50 [1]: 1230 nM; Emax (FXR LBD, GST): 131%; EC50 (FXR LBD, GST): 46 nM

Q: With Cn1nc2cc(N3CCN(CCc4c(-c5c(Cl)cccc5Cl)noc4C4CC4)CC3)ccc2c1C(=O)O [Example I18, 6-(4-(2-(5-cyclopropyl-3-(2,6-dichlorophenyl)isoxazol-4-yl)ethyl)piperazin-1-yl)-2-methyl-2H-indazole-3-carboxylic Acid] as the compound, how does the EC50 [1] read?
A: 436 nM

Q: And the Emax (FXR LBD, GST)?
A: 142%

Q: And the EC50 (FXR LBD, GST)?
A: 46 nM

Q: How did the EC50 [1] turn out when Cn1cc(C(=O)O)c2ccc(N3CCN(CCc4c(-c5ccccc5OC(F)(F)F)noc4C4CC4)CC3)cc21 [Example I20, 6-(4-(2-(5-cyclopropyl-3-(2-(trifluoromethoxy)phenyl)isoxazol-4-yl)ethyl)piperazin-1-yl)-1-methyl-1H-indole-3-carboxylic Acid] was run?
A: 906 nM

Q: And the Emax (FXR LBD, GST)?
A: 193%

Q: What about the EC50 (FXR LBD, GST) of the same compound?
A: 450 nM

Q: Which results are given for COc1cccc(Cl)c1-c1noc(C2CC2)c1CCN1CCN(c2ccc3c(C(=O)O)cn(C)c3c2)CC1 [Example I21, 6-(4-(2-(3-(2-chloro-6-methoxyphenyl)-5-cyclopropylisoxazol-4-yl)ethyl)piperazin-1-yl)-1-methyl-1H-indole-3-carboxylic Acid]?
A: EC50 [1]: 2860 nM; Emax (FXR LBD, GST): 85.1%; EC50 (FXR LBD, GST): 890 nM

Q: Cc1cccc(Cl)c1-c1noc(C2CC2)c1CCN1CCN(c2ccc3c(C(=O)O)cn(C)c3c2)CC1 [Example I22, 6-(4-(2-(3-(2-chloro-6-methylphenyl)-5-cyclopropylisoxazol-4-yl)ethyl)piperazin-1-yl)-1-methyl-1H-indole-3-carboxylic Acid] was tested. Which EC50 [1] did it give?
A: 634 nM

Q: What about the Emax (FXR LBD, GST) of the same compound?
A: 163%

Q: And the EC50 (FXR LBD, GST)?
A: 162 nM

Q: Which EC50 [1] does the source give for CC(CN1CCN(c2ccc3c(C(=O)O)cn(C)c3c2)CC1)c1c(-c2c(Cl)cccc2Cl)noc1C1CC1 (stereo not drawn) [Example I24, 6-(4-(2-(5-cyclopropyl-3-(2,6-dichlorophenyl)isoxazol-4-yl)propyl)piperazin-1-yl)-1-methyl-1H-indole-3-carboxylic Acid] here?
A: 1860 nM

Q: And the Emax (FXR LBD, GST)?
A: 89.8%

Q: What about the EC50 (FXR LBD, GST) of the same compound?
A: 422 nM

Q: Cn1cc(C(=O)O)c2ccc(N3CCN(CCc4c(-c5c(Cl)cccc5Cl)noc4C4CC4)CC3(C)C)cc21 [Example I25, 6-(4-(2-(5-cyclopropyl-3-(2,6-dichlorophenyl)isoxazol-4-yl)ethyl)-2,2-dimethylpiperazin-1-yl)-1-methyl-1H-indole-3-carboxylic Acid] was tested. Which EC50 [1] did it give?
A: 288 nM

Q: What about the Emax (FXR LBD, GST) of the same compound?
A: 151%

Q: And the EC50 (FXR LBD, GST)?
A: 83 nM

Q: With Cn1cc(C(=O)O)c2ccc(N3CCN(CCc4c(-c5ccccc5C(F)(F)F)noc4C4CC4)CC3)cc21 [Example I26, 6-(4-(2-(5-cyclopropyl-3-(2-(trifluoromethyl)phenyl)isoxazol-4-yl)ethyl)piperazin-1-yl)-1-methyl-1H-indole-3-carboxylic Acid] as the compound, how does the EC50 [1] read?
A: 1210 nM

Q: And the Emax (FXR LBD, GST)?
A: 214%

Q: And the EC50 (FXR LBD, GST)?
A: 882 nM

Q: How did the EC50 [1] turn out when Cc1onc(-c2c(Cl)cccc2Cl)c1CCN1CCN(c2ccc3c(C(=O)O)cn(C)c3c2)CC1 [Example I27, 6-(4-(2-(3-(2,6-dichlorophenyl)-5-methylisoxazol-4-yl)ethyl)piperazin-1-yl)-1-methyl-1H-indole-3-carboxylic Acid] was run?
A: 1800 nM

Q: What about the Emax (FXR LBD, GST) of the same compound?
A: 91.1%

Q: What about the EC50 (FXR LBD, GST) of the same compound?
A: 454 nM

Q: Which results are given for Cn1cc(C(=O)O)c2ccc(N3C4CCC3CN(CCc3c(-c5c(Cl)cccc5Cl)noc3C3CC3)C4)cc21 [Example I30, 6-(3-(2-(5-cyclopropyl-3-(2,6-dichlorophenyl)isoxazol-4-yl)ethyl)-3,8-diazabicyclo[3.2.1]octan-8-yl)-1-methyl-1H-indole-3-carboxylic Acid]?
A: EC50 [1]: 1200 nM; Emax (FXR LBD, GST): 111%; EC50 (FXR LBD, GST): 60 nM

Q: Which results are given for C[C@@H]1CN(c2ccc3c(C(=O)O)cn(C)c3c2)CCN1CCc1c(-c2c(Cl)cccc2Cl)noc1C1CC1 [Example I35, (R)-6-(4-(2-(5-cyclopropyl-3-(2,6-dichlorophenyl)isoxazol-4-yl)ethyl)-3-methylpiperazin-1-yl)-1-methyl-1H-indole-3-carboxylic Acid]?
A: EC50 [1]: 494 nM; Emax (FXR LBD, GST): 156%; EC50 (FXR LBD, GST): 97 nM

Q: For Cn1cc(C(=O)O)c2ccc(C3CCN(CCc4c(-c5c(Cl)cccc5Cl)noc4C4CC4)CC3)cc21 [Example I36, 6-(1-(2-(5-cyclopropyl-3-(2,6-dichlorophenyl)isoxazol-4-yl)ethyl)piperidin-4-yl)-1-methyl-1H-indole-3-carboxylic Acid], which EC50 [1] is on record?
A: 577 nM

Q: And the Emax (FXR LBD, GST)?
A: 161%

Q: What about the EC50 (FXR LBD, GST) of the same compound?
A: 94 nM

Q: Which EC50 [1] does the source give for C[C@H]1CN(c2ccc3c(C(=O)O)cn(C)c3c2)CCN1CCc1c(-c2c(Cl)cccc2Cl)noc1C1CC1 [Example I37, (S)-6-(4-(2-(5-cyclopropyl-3-(2,6-dichlorophenyl)isoxazol-4-yl)ethyl)-3-methylpiperazin-1-yl)-1-methyl-1H-indole-3-carboxylic Acid] here?
A: 574 nM

Q: And the Emax (FXR LBD, GST)?
A: 232%

Q: And the EC50 (FXR LBD, GST)?
A: 101 nM
